Results: patent publication US7129080B2 (priority 2001, dated 2006)
Converted amounts (≈) assume the structure as drawn. Counter-ions that a name gives are not always drawn. Like-named read-outs stand apart in the source and are kept apart here.

Legend:
[1] = system: prion model; test: organism not typed; assay type: cell-based
[2] = system: prion model; assay type: biochemical
[3] = system: prion model; assay type: cell-based; settings: ethylene oxide 600 mg/L, 18 mins, initial count 8.5

**Q.** How did the “concentration showing at least some effect on growth of the prion model (MIC test)” value (“concentration showing” below) [1] turn out when Cl [HCl] was run?
**A.** ~0.1 N

**Q.** For CC(=O)OO [Peracetic acid], which “breakdown of the protein” value [2] is on record?
**A.** break down the protein to a form which is inactive

**Q.** And the MIC ([1]; read-out: concentration showing at least some effect on growth of the prion model (MIC test))?
**A.** ~600 µg/mL (≈ 7.89 mM)

**Q.** Which results are given for C1CO1 [ethylene oxide]?
**A.** Prion count in Logs ([3]; 54° C., 40% RH): 4.7 Logs; Prion count in Logs ([3]; 70° C., 100% RH): 5.0 Logs

**Q.** Which “activity at inhibiting the growth of the prion model in culture media” value (“activity at inhibiting the growth” for short) [1] does the source give for [Mn+2] [Manganese] here?
**A.** measurable activity

**Q.** And the “concentration showing” value [1]?
**A.** ~100 mg/L

**Q.** Which “activity at inhibiting the growth” value [1] does the source give for NC[C@@H]1O[C@H](O[C@H]2[C@@H](O)[C@H](O[C@@H]3[C@@H](O)[C@H](N)C[C@H](N)[C@H]3O[C@H]3O[C@H](CN)[C@@H](O)[C@H](O)[C@H]3N)O[C@@H]2CO)[C@H](N)[C@@H](O)[C@@H]1O.O=S(=O)(O)O [neomycin sulphate] here?
**A.** measurable activity

**Q.** And the “concentration showing” value [1]?
**A.** ~125 mg/L

**Q.** What does the source list for O=[N+]([O-])[O-].[Ag+] [silver nitrate]?
**A.** activity at inhibiting the growth of the prion model in culture media [1]: measurable activity; concentration showing at least some effect on growth of the prion model (MIC test) [1]: ~30 mg/L

**Q.** Which “activity at inhibiting the growth” value [1] does the source give for [Na+].[OH-] [NaOH, sodium hydroxide] here?
**A.** effective

**Q.** And the “concentration showing” value [1]?
**A.** ~0.01 N
